According to patent US10245261B2, “Substituted indol-5-ol derivatives and their therapeutic applications” (NantBioScience, Inc., priority 2013, dated 2019):

How the values were obtained:
Experiment in all cases: KinaseProfiler kinase assay
Assay type in all cases: biochemical
[1] = target: ARK5(h) (Homo sapiens, UniProt O60285)
How it was run: (§1)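 Using a filter-binding 33P format, reactions initiated by MgATP addition proceeded 40 min at room temperature before a 3% phosphoric acid stop. Filtermats were washed three times in 50 mM phosphoric acid and once in methanol, dried and counted.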

[2] = target: Abl(m) (Mus musculus, UniProt P00520)
How it was run: as §1

[3] = target: Aurora-B(h) (Homo sapiens, UniProt Q96GD4)
How it was run: as §1

[4] = target: Aurora-C(h) (Homo sapiens, UniProt Q9UQB9)
How it was run: as §1

[5] = target: Axl(h) (Homo sapiens, UniProt P30530)
How it was run: as §1

[6] = target: Blk(h) (Homo sapiens, UniProt P51451)
How it was run: as §1

[7] = target: CDK2/cyclinA(h) (Homo sapiens, UniProt P24941)
How it was run: as §1

[8] = target: CDK5/p35(h) (Homo sapiens, UniProt Q00535)
How it was run: as §1

[9] = target: CDK6/cyclinD3(h) (Homo sapiens, UniProt Q00534)
How it was run: as §1

[10] = target: CDK9/cyclin T1(h) (Homo sapiens, UniProt P50750)
How it was run: as §1

[11] = target: CaMKI(h) (Homo sapiens, UniProt Q14012)
How it was run: as §1

[12] = target: CaMKIIβ(h) (Homo sapiens, UniProt Q13554)
How it was run: as §1

[13] = target: FGFR1(V561M)(h) (Homo sapiens, UniProt P11362, V561M)
How it was run: as §1

[14] = target: GRK5(h) (Homo sapiens, UniProt P34947)
How it was run: as §1

[15] = target: HIPK1(h) (Homo sapiens, UniProt Q86Z02)
How it was run: as §1

[16] = target: Hck(h) (Homo sapiens, UniProt P08631)
How it was run: as §1

[17] = target: IGF-1R(h), activated (Homo sapiens, UniProt P08069)
How it was run: as §1

[18] = target: IR(h) (Homo sapiens, UniProt P06213)
How it was run: as §1

[19] = target: IRR(h) (Homo sapiens, UniProt P14616)
How it was run: as §1

[20] = target: MEK1(h) (Homo sapiens, UniProt Q02750)
How it was run: as §1

[21] = target: MINK(h) (Homo sapiens, UniProt Q8N4C8)
How it was run: as §1

[22] = target: Met(D1246H)(h) (Homo sapiens, UniProt P08581, D1228H)
How it was run: as §1

[23] = target: PASK(h) (Homo sapiens, UniProt Q96RG2)
How it was run: as §1

[24] = target: PI3 Kinase (p110α(E545K)/p85α)(m) (Mus musculus, UniProt P42337, E545K)
How it was run: as §1

[25] = target: PKCε(h) (Homo sapiens, UniProt Q02156)
How it was run: as §1

[26] = target: ROCK-II(r) (Rattus norvegicus, UniProt Q62868)
How it was run: as §1

[27] = target: SAPK2a(T106M)(h) (Homo sapiens, UniProt Q16539, T106M)
How it was run: as §1

[28] = target: SGK3(h) (Homo sapiens, UniProt Q96BR1)
How it was run: as §1

[29] = target: ULK3(h) (Homo sapiens, UniProt Q6PHR2)
How it was run: as §1

[30] = target: ZAP-70(h) (Homo sapiens, UniProt P43403)
How it was run: as §1

[31] = target: cKit(D816H)(h) (Homo sapiens, UniProt P10721, D816H)
How it was run: as §1

Sequence of ZAP-70(h) (P43403 whole entry): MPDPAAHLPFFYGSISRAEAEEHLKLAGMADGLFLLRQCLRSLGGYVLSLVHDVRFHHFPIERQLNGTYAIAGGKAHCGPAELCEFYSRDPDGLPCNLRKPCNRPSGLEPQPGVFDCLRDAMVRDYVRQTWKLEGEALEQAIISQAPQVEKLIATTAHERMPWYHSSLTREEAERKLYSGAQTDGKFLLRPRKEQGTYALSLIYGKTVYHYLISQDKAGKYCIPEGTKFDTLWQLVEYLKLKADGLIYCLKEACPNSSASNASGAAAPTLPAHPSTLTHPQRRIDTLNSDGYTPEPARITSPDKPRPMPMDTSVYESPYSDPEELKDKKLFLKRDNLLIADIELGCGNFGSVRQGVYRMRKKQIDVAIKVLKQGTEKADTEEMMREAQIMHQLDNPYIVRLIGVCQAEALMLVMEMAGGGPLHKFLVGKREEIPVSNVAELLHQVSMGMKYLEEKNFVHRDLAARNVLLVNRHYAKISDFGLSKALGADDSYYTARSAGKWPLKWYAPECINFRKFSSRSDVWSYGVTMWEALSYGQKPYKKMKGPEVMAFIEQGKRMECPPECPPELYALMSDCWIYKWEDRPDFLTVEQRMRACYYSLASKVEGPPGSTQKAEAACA
Sequence of PI3 Kinase (p110α(E545K)/p85α)(m) (P42337 whole entry E545K): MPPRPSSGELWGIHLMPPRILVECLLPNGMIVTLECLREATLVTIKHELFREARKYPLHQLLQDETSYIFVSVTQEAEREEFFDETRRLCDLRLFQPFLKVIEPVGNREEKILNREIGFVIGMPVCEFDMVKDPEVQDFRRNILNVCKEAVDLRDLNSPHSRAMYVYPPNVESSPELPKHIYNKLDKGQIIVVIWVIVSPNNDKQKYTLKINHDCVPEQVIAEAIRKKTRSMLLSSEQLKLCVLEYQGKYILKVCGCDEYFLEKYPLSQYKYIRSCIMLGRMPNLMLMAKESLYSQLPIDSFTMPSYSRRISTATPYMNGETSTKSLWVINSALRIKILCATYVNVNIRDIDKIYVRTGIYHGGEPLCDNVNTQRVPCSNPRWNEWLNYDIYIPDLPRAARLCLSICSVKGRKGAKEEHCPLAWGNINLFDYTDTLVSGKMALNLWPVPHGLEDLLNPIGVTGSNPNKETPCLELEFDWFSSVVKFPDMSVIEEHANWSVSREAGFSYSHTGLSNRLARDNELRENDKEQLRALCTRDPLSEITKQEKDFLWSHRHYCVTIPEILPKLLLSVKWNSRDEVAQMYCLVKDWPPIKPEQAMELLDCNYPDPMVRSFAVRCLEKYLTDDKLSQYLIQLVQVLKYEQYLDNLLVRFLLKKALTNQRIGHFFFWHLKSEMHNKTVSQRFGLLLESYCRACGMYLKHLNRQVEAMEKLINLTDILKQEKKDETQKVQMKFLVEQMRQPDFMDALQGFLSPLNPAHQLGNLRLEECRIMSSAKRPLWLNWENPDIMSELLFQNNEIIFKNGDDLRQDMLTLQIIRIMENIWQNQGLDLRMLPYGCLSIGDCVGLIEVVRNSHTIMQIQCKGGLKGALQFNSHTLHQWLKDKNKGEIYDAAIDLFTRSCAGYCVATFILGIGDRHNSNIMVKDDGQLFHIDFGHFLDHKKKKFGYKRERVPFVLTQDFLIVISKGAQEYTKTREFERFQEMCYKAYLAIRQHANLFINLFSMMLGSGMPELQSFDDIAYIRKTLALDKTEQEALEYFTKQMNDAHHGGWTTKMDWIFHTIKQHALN
Sequence of PI3 Kinase (p110α(E545K)/p85α)(m) (P26450 whole entry partner): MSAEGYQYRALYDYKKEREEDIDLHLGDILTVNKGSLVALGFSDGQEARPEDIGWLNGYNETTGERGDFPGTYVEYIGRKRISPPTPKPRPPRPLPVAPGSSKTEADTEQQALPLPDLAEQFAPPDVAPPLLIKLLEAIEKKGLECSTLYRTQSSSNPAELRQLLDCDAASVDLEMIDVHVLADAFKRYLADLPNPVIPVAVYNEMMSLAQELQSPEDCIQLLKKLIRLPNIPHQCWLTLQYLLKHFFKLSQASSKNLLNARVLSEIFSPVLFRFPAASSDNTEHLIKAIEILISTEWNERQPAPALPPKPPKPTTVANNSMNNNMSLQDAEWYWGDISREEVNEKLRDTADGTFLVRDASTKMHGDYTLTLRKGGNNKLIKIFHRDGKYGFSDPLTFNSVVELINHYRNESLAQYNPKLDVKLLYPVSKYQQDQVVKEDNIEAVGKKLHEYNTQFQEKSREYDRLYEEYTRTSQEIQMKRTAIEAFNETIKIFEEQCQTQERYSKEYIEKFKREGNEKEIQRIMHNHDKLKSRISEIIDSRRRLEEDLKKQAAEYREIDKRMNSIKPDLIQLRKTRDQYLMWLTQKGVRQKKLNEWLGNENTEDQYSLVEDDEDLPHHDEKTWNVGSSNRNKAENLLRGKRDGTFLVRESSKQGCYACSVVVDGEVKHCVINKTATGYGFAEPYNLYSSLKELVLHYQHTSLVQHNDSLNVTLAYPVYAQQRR
Sequence of Axl(h) (P30530 26-894): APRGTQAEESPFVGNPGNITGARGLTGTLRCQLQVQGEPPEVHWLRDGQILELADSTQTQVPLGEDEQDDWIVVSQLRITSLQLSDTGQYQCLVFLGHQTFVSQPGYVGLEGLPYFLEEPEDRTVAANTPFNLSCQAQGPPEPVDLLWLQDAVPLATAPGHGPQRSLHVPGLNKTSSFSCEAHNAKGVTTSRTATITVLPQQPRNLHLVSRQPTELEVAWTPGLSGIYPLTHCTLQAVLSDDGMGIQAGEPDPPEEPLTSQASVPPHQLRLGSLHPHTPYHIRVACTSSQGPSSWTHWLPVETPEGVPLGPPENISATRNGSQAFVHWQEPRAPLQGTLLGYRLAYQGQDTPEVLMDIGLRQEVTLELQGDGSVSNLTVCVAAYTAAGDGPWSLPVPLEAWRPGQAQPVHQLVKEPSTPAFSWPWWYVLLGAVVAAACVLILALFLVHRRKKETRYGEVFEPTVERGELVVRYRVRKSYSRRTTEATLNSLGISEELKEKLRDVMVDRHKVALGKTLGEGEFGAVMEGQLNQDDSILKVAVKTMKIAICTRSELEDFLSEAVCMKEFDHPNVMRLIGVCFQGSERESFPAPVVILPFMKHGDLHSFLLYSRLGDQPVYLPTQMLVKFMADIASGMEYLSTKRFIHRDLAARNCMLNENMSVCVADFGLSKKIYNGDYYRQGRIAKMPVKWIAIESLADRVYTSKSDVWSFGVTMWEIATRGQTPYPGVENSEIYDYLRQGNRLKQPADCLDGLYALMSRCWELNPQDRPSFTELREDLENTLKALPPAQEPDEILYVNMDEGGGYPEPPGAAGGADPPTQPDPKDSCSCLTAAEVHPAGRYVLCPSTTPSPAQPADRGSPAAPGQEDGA
Sequence of PKCε(h) (Q02156 whole entry): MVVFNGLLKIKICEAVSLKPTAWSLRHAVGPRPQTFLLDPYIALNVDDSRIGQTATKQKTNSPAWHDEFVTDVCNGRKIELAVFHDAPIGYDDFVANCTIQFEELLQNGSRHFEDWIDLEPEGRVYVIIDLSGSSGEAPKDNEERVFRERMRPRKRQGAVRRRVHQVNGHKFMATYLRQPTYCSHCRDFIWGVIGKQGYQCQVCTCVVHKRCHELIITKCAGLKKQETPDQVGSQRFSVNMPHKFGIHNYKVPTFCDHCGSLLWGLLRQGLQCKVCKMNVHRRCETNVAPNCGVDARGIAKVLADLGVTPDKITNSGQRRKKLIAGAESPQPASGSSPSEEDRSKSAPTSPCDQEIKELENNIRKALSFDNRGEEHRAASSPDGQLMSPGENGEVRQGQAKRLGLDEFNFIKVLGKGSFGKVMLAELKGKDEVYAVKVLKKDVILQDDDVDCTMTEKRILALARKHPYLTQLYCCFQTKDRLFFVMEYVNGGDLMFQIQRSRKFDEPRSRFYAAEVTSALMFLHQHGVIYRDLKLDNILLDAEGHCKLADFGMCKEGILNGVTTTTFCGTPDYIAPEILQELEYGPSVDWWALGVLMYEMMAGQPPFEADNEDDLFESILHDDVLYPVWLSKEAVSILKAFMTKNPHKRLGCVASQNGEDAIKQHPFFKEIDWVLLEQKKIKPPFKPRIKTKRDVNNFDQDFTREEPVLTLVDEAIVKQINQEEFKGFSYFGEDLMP
Sequence of Aurora-C(h) (Q9UQB9 whole entry): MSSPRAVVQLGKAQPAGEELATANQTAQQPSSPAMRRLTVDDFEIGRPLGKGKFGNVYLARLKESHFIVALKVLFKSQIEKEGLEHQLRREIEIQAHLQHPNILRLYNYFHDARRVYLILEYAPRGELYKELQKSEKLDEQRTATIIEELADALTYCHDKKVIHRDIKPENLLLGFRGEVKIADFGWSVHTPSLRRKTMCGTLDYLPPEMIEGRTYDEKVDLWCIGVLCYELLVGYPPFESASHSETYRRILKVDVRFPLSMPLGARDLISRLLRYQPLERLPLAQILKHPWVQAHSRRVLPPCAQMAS
Sequence of SGK3(h) (Q96BR1 whole entry): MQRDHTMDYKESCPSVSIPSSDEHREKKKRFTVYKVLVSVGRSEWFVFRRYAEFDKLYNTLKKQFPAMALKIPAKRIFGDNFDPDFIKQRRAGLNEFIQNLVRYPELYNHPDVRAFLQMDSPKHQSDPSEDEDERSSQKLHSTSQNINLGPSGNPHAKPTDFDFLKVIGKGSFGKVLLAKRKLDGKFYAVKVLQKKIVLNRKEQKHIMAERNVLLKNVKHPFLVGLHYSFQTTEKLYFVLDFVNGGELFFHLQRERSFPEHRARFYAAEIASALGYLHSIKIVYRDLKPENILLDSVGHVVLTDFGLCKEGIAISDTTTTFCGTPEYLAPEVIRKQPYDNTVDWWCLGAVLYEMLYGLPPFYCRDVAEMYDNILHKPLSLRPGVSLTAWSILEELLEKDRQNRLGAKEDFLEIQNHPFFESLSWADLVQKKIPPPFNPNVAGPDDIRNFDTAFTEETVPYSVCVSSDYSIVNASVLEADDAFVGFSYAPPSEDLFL

## Cc1cc2c(F)c(Oc3nc(Nc4cc(C5CC5)[nH]n4)cc(N4CCN(C)CC4)n3)ccc2[nH]1 [Compound 10]
[1]
  inhibition at 0.1 µM: 99%
[2]
  inhibition at 0.1 µM: 101%
[3]
  inhibition at 0.1 µM: 97%
[4]
  inhibition at 0.1 µM: 54%
[5]
  inhibition at 0.1 µM: 70%
[6]
  inhibition at 0.1 µM: 94%
[7]
  inhibition at 0.1 µM: 5%
[8]
  inhibition at 0.1 µM: 20%
[9]
  inhibition at 0.1 µM: -5%
[10]
  inhibition at 0.1 µM: 22%
[11]
  inhibition at 0.1 µM: 2%
[12]
  inhibition at 0.1 µM: -5%
[13]
  inhibition at 0.1 µM: 101%
[14]
  inhibition at 0.1 µM: 18%
[15]
  inhibition at 0.1 µM: -6%
[16]
  inhibition at 0.1 µM: 68%
[17]
  inhibition at 0.1 µM: 59%
[18]
  inhibition at 0.1 µM: 83%
[19]
  inhibition at 0.1 µM: 91%
[20]
  inhibition at 0.1 µM: 14%
[21]
  inhibition at 0.1 µM: 7%
[22]
  inhibition at 0.1 µM: 74%
[23]
  inhibition at 0.1 µM: 22%
[24]
  inhibition at 0.1 µM: 0%
[25]
  inhibition at 0.1 µM: -10%
[26]
  inhibition at 0.1 µM: 13%
[27]
  inhibition at 0.1 µM: 2%
[28]
  inhibition at 0.1 µM: -5%
[29]
  inhibition at 0.1 µM: 86%
[30]
  inhibition at 0.1 µM: 3%
[31]
  inhibition at 0.1 µM: 86%

## Cc1cc2c(F)c(Oc3nc(Nc4cc(C5CC5)[nH]n4)cc(N4CCNCC4)n3)ccc2[nH]1 [Compound 11, N-(5-cyclopropyl-1H-pyrazol-3-yl)-2-((4-fluoro-2-methyl-1H-indol-5-yl)oxy)-6-(piperazin-1-yl)pyrimidin-4-amine]
[1]
  inhibition at 0.1 µM: 95%
[2]
  inhibition at 0.1 µM: 104%
[3]
  inhibition at 0.1 µM: 98%
[4]
  inhibition at 0.1 µM: 67%
[5]
  inhibition at 0.1 µM: 62%
[6]
  inhibition at 0.1 µM: 94%
[7]
  inhibition at 0.1 µM: 3%
[8]
  inhibition at 0.1 µM: 78%
[9]
  inhibition at 0.1 µM: 11%
[10]
  inhibition at 0.1 µM: 32%
[11]
  inhibition at 0.1 µM: 7%
[12]
  inhibition at 0.1 µM: 8%
[13]
  inhibition at 0.1 µM: 101%
[14]
  inhibition at 0.1 µM: -2%
[15]
  inhibition at 0.1 µM: -12%
[16]
  inhibition at 0.1 µM: 85%
[17]
  inhibition at 0.1 µM: 65%
[18]
  inhibition at 0.1 µM: 84%
[19]
  inhibition at 0.1 µM: 95%
[20]
  inhibition at 0.1 µM: 1%
[21]
  inhibition at 0.1 µM: 31%
[22]
  inhibition at 0.1 µM: 93%
[23]
  inhibition at 0.1 µM: -17%
[24]
  inhibition at 0.1 µM: 1%
[25]
  inhibition at 0.1 µM: 17%
[26]
  inhibition at 0.1 µM: 16%
[27]
  inhibition at 0.1 µM: 3%
[28]
  inhibition at 0.1 µM: 4%
[29]
  inhibition at 0.1 µM: 84%
[30]
  inhibition at 0.1 µM: -13%
[31]
  inhibition at 0.1 µM: 91%
